Source: patent US11964971B2, “Methods and compositions for modulating splicing” (Skyhawk Therapeutics, Inc., priority 2019, dated 2024)

Assays:
MDR1 = assay: in vitro; conditions: dog; for Papp A→B at 120 min, 5 μM: MDCK-MDR1, pH 7.4, MDCK-MDR1: Papp A-B (10^−6, cm/s); for Papp B→A at 120 min, 5 μM: MDCK-MDR1, pH 7.4, MDCK-MDR1: Papp B-A (10^−6, cm/s)
Procedure: (§1) Experimental Procedure: MDR1-MDCK cell monolayers are grown to confluence on collagen-coated, microporous membranes in 12-well assay plates. The permeability assay buffer is Hanks' balanced salt solution containing 10 mM HEPES and 15 mM glucose at a pH of 7.4. The buffer in the receiver chamber also contained 1% bovine serum albumin. The dosing solution concentration is 5 μM of test article in the assay buffer. Cell monolayers are dosed on the apical side (A-to-B) or basolateral side (B-to-A) and incubated at 37° C. with 5% CO2 in a humidified incubator. Samples are taken from the donor and receiver chambers at 120 minutes. Each determination is performed in duplicate. The flux of lucifer yellow is also measured post-experimentally for each monolayer to ensure no damage was inflicted to the cell monolayers during the flux period. All samples are assayed by LC-MS/MS using electrospray ionization.
(§2) Analytical Method: Liquid Chromatography • Column: Waters ACQUITY UPLC BEH Phenyl 30×2.1 mm, 1.7 μm • M.P. Buffer: 25 mM ammonium formate buffer, pH 3.5 • Aqueous Reservoir (A): 90% water, 10% buffer • Organic Reservoir (B): 90% acetonitrile, 10% buffer • Flow Rate: 0.7 mL/minute • Gradient Program:
(§3) • Total Run Time: 1.00 minute • Autosampler: 2 μL injection volume • Wash1: water/methanol/2-propanol:1/1/1; with 0.2% formic acid • Wash2: 0.1% formic acid in water • Brain Penetration • Potential Classification: A-B Papp≥3.0 and Efflux Ratio<3.0: High • A-B Papp≥3.0 and 10>Efflux Ratio≥3.0: Moderate • A-B Papp≥3.0 and Efflux Ratio≥10: Low • A-B Papp<3.0: Low

[1] = test system: MDR1-MDCK cell monolayers; conditions: dog, MDCK-MDR1, 120 min, 5 μM, pH 7.4
Procedure: as §1, §2, §3

SMN protein = SMN protein assay (MSD) in SMA patient fibroblasts (GM03813); type: cell-based, human
Procedure: Compounds are tested on spinal muscular atrophy (SMA) patient fibroblasts (GM03813, Coriell) at doses ranging from 2.5 μM to 0.6 nM. 7000 cells/well are seeded in 96-well plates. Compounds are incubated for 48 hours and the cells were lysed with 100 μL of lysis buffer. 20 μL of lysate is used for SMN protein measurement by Mesoscale Discovery (MSD) assay developed by PharmOptima (Michigan). A standard curve prepared with SMN protein ranging from […] is used in each MSD plate to calculate the absolute SMN protein amount in each sample.

MDR1 (P-gp) = assay: MDCK-MDR1 permeability assay, blood-brain-barrier penetration potential; conditions: dog, MDCK-MDR1, pH 7.4, MDCK-MDR1 Efflux Ratio
Procedure: as §1, §2, §3

| Compound | Papp A→B at 120 min, 5 μM (MDR1) [×10⁻⁶ cm/s] | Papp B→A at 120 min, 5 μM (MDR1) [×10⁻⁶ cm/s] | MDCK-MDR1: % Recov A-B (%) [1] [%] | MDCK-MDR1: % Recov B-A (%) [1] [%] | EC50 (SMN protein) [nM] | efflux ratio at 120 min, 5 μM (MDR1 (P-gp)) |
| --- | --- | --- | --- | --- | --- | --- |
| COc1cc(-c2cc(O)c(-c3cnc(N(C)[C@@H]4CC5CC[C@H](N5)[C@@H]4F)cn3)cc2F)ccn1 (single isomer, unassigned) [Compound 30E1] | 3.95 | 5.24 | 13 | 49 | 501 to 10000 | 1 |
| CN(C)C(=O)c1cc(O)c(-c2cnc(N(C)[C@@H]3CC4CC[C@H](N4)[C@@H]3F)cn2)cc1F (single isomer, unassigned) [Compound 14E1] | 0.75 | 39.1 | 79 | 84 | 501 to 10000 | 52 |
| COc1cc(-c2ccc(-c3cnc(N(C4CC4)[C@@H]4CC5CC[C@H](N5)[C@@H]4F)cn3)c(O)c2)ccn1 (single isomer, unassigned) [Compound 51E1] | 1.5 | 3.19 | 8 | 34 | 501 to 10000 | 2 |
| CN(c1cnc(-c2cc(F)c(-c3ccn(CF)c(=O)c3)cc2O)cn1)[C@@H]1C[C@H]2CC[C@H](N2)[C@@H]1F [Compound 32E1, 4-(2-fluoro-4-(5-(((1S,2S,3R,5R)-2-fluoro-8-azabicyclo[3.2.1]octan-3-yl)(methyl)amino)pyrazin-2-yl)-5-hydroxyphenyl)-1-(fluoromethyl)pyridin-2(1H)-one] | 3.13 | 58.7 | 101 | 92 | 501 to 10000 | 19 |
| CN(c1cnc(-c2ccc(-c3cn[nH]c3)cc2O)cn1)[C@H]1CC2CC(F)(F)[C@H](C1)N2 (single isomer, unassigned) [Compound 9E2] | 19.9 | 55.4 | 71 | 90 | 16 to 50 | 3 |
| CN(c1cnc(-c2cc3ccc(OCF)nc3cc2O)cn1)[C@H]1C[C@@H]2CCC(N2)[C@H]1F (single isomer, unassigned) [Compound 19E2] | 2.81 | 17.1 | 28 | 62 | 501 to 10000 | 6 |
| CN(c1cnc(-c2ccc(-c3cc[nH]c(=O)c3)cc2O)cn1)[C@@H]1CC2COC[C@H](N2)[C@@H]1F (single isomer, unassigned) [Compound 82E1] | 0.51 | 39.2 | 83 | 87 | 501 to 10000 | 77 |
| CN(c1cnc(-c2cc(F)c(C3=CC(F)NC(F)=C3)cc2O)cn1)[C@H]1C[C@]2(C)CC[C@@](C)(N2)[C@H]1F (single isomer, unassigned) [Compound 63E2] | 0.58 | 0.22 | 19 | 24 | 501 to 10000 |  |
| CN(c1cnc(-c2ccc(-c3cnn(C)c3)cc2O)cn1)[C@@H]1C[C@H]2CCC[C@H](N2)[C@@H]1F [Compound 4E1, 2-(5-(((1S,2S,3R,5R)-2-fluoro-9-azabicyclo[3.3.1]nonan-3-yl)(methyl)amino)pyrazin-2-yl)-5-(1-methyl-1H-pyrazol-4-yl)phenol] | 4.89 | 31.4 | 44 | 66 | 51 to 100 | 6 |
| COc1cc(-c2cc(O)c(-c3cnc(N(C)[C@@H]4CC5CC[C@H](N5)[C@@H]4F)cn3)cc2F)cc(F)n1 (single isomer, unassigned) [Compound 31E1] | 0.48 | 0.8 | 58 | 65 | 501 to 10000 | 2 |
| Cc1nc(-c2ccc(-c3cnc(N(C)[C@H]4C[C@@H]5CCC(N5)[C@H]4F)cn3)c(O)c2)no1 (single isomer, unassigned) [Compound 69E2] | 9.26 | 20.3 | 47 | 62 | 101 to 500 | 2 |
| Oc1cc(-c2cn[nH]c2)c(F)cc1-c1cnc(N(C2CC2)[C@@H]2CC3CC[C@H](N3)[C@@H]2F)cn1 (single isomer, unassigned) [Compound 41E1] | 6.63 | 39.2 | 54 | 75 | 501 to 10000 | 8 |
| Cc1noc(-c2ccc(-c3cnc(N(C)[C@H]4C[C@@H]5CCC(N5)[C@H]4F)cn3)c(O)c2)n1 (single isomer, unassigned) [Compound 70E2] |  |  |  |  | 101 to 500 |  |
| COc1cc(-c2cc(O)c(-c3cnc(N(C4CC4)[C@H]4C[C@@H]5CCC(N5)[C@H]4F)cn3)cc2F)cc(F)n1 (single isomer, unassigned) [Compound 37E2] | 0.94 | 2.58 | 19 | 45 | 501 to 10000 | 3 |
| CN(c1cnc(-c2ccc(-c3cn[nH]c3)cc2O)cn1)[C@@H]1CC2CC[C@H](N2)[C@H]1F (single isomer, unassigned) [Compound 27E1] | 3.87 | 28.7 | 77 | 79 | 501 to 10000 | 7 |
| COc1cc(-c2ccc(-c3cnc(N(C)[C@H]4C[C@@H]5CCC(N5)[C@H]4F)cn3)c(O)c2)ccn1 (single isomer, unassigned) [Compound 43E2] | 0.98 | 1.35 | 12 | 49 | 16 to 50 | 1 |
| CN(c1cnc(-c2cc(F)c(-n3ccnn3)cc2O)cn1)[C@H]1C[C@@H]2CCC(N2)[C@H]1F (single isomer, unassigned) [Compound 21E2] | 11.3 | 48 | 78 | 85 | 501 to 10000 | 4 |
| Cn1cc(-c2ccc(-c3cnc(N(C4CC4)[C@@H]4CC5CC[C@H](N5)[C@@H]4F)cn3)c(O)c2)cn1 (single isomer, unassigned) [Compound 49E1] | 4.73 | 26.5 | 47 | 65 | 501 to 10000 | 6 |
| CN(c1cnc(-c2ccc3ccncc3c2O)cn1)[C@H]1C[C@@H]2CCC(N2)[C@H]1F (single isomer, unassigned) [Compound 71E2] |  |  |  |  | 16 to 50 |  |
| Cc1noc(-c2ccc(-c3cnc(N(C)[C@@H]4CC5CC[C@H](N5)[C@@H]4F)cn3)c(O)c2)n1 (single isomer, unassigned) [Compound 70E1] |  |  |  |  | 501 to 10000 |  |
